This is an account of results in patent US8735414B2 (priority 2009, dated 2014).

In data set [1] the test system is bicistronic HCV replicon (replicon RNA, GenBank Accession No. AJ242654). The data set is described as follows: HCV Replicon Assay. It is filed as cell-based. The settings on record: Hepatitis C virus, 72 h, read-out: Replicon IC50. (Replicon systems follow genome replication, usually without infectious particles.)

Each structure is given as a SMILES string.

A word on the IC50: it is the concentration needed to halve the response being measured. Broadly, the melting point is the temperature, or range, at which the solid turns liquid.

Turning to `CNC(=O)c1c(-c2ccc(S(=O)(=O)NC(C)(C)C)cn2)n(C2CCCC2)c2cc(C)c(F)cc12` [compound 799, 2-[5-(tert-butylsulfamoyl)pyridin-2-yl]-1-cyclopentyl-5-fluoro-N,6-dimethyl-1H-indole-3-carboxamide], the melting point lay within 248 to 250 °C. Besides, in data set [1], the IC50 was < 500 nM.
In turn, `COc1ccc2c(C#N)c(-c3ncc(S(=O)(=O)NC(C)C)cn3)n(C3CCC3)c2c1` [compound 172, 2-(3-cyano-1-cyclobutyl-6-methoxy-1H-indol-2-yl)-N-(propan-2-yl)pyrimidine-5-sulfonamide] came in with a melting point of 200 to 202 °C. Also, in data set [1], the IC50 was < 500 nM.
The matching figures for `CC(C)n1c(-c2ccc(NS(=O)(=O)C(C)(C)C)nc2)c(C#N)c2ccc(OC(F)F)cc21` [compound 299, N-{5-[3-cyano-6-(difluoromethoxy)-1-(propan-2-yl)-1H-indol-2-yl]pyridin-2-yl}-2-methylpropane-2-sulfonamide]: 263 to 264 °C and 2000 to 5000 nM.
`CC(C)(NS(=O)(=O)c1ccc(-c2c(C#N)c3cc(F)c(C4CC4)cc3n2C2CCCC2)nc1)C(F)(F)F` [compound 831, 6-(3-cyano-1-cyclopentyl-6-cyclopropyl-5-fluoro-1H-indol-2-yl)-N-(1,1,1-trifluoro-2-methylpropan-2-yl)pyridine-3-sulfonamide] came in with a melting point of 183 to 185 °C. Besides, the IC50 in data set [1] is < 500 nM.
As to `C[C@H](NS(=O)(=O)c1cnc(-c2c(C#N)c3ccc(OC(F)F)cc3n2C2CCCCC2)nc1)C1CC1` [compound 471, 2-[3-cyano-1-cyclohexyl-6-(difluoromethoxy)-1H-indol-2-yl]-N-[(1S)-1-cyclopropylethyl]pyrimidine-5-sulfonamide], the melting point fell in the range of 150 to 152 °C. For the same molecule, the concentration for half-maximal inhibition (IC50) in data set [1] was < 500 nM.
The matching figures for `Cc1ccc2c(C#N)c(-c3ccc(S(=O)(=O)N[C@@H](C)C(F)(F)F)cn3)n(-c3ccccn3)c2c1` [compound 476, 6-[3-cyano-6-methyl-1-(pyridin-2-yl)-1H-indol-2-yl]-N-[(2S)-1,1,1-trifluoropropan-2-yl]pyridine-3-sulfonamide]: 199 to 203 °C and < 500 nM.
In the same order, the values of `CCc1cc2c(cc1F)c(C(N)=O)c(-c1ccc(S(=O)(=O)N[C@@H](C)C(F)(F)F)cn1)n2-c1ccc(C(F)(F)F)cc1` [compound 1022, 6-ethyl-5-fluoro-1-[4-(trifluoromethyl)phenyl]-2-(5-{[(2S)-1,1,1-trifluoropropan-2-yl]sulfamoyl}pyridin-2-yl)-1H-indole-3-carboxamide] are 253 to 259 °C and < 500 nM.
For the molecule `N#Cc1c(-c2ccc(S(=O)(=O)NC(CF)CF)cn2)n(C2CCC2)c2cc(N3CCOCC3)ccc12` [compound 322, 6-[3-cyano-1-cyclobutyl-6-(morpholin-4-yl)-1H-indol-2-yl]-N-(1,3-difluoropropan-2-yl)pyridine-3-sulfonamide], the melting point is 241 to 242 °C. Further, the IC50 in data set [1] lay in the range of 2000 to 5000 nM.
On to `CCc1cc2c(cc1F)c(C(N)=O)c(-c1ccc(S(=O)(=O)N[C@@H](C)C(F)(F)F)cn1)n2-c1cnccn1` [compound 994, 6-ethyl-5-fluoro-1-(pyrazin-2-yl)-2-(5-{[(2S)-1,1,1-trifluoropropan-2-yl]sulfamoyl}pyridin-2-yl)-1H-indole-3-carboxamide], for which the melting point lay within 120 to 127 °C. Also, the half-inhibitory concentration (IC50) in data set [1] was < 500 nM.
On to `C[C@H](NS(=O)(=O)c1cnc(-c2c(C#N)c3ccc(C4CC4)cc3n2C2CCC2)nc1)C(F)(F)F` [compound 324, 2-(3-cyano-1-cyclobutyl-6-cyclopropyl-1H-indol-2-yl)-N-[(2S)-1,1,1-trifluoropropan-2-yl]pyrimidine-5-sulfonamide], for which the melting point lay within 214 to 215 °C. In data set [1], the half-inhibitory concentration (IC50) was < 500 nM.
`Cc1ccc2c(C#N)c(-c3ncc(S(=O)(=O)NC(CF)CF)cn3)n(-c3ccccc3)c2c1` [compound 260, 2-(3-cyano-6-methyl-1-phenyl-1H-indol-2-yl)-N-(1,3-difluoropropan-2-yl)pyrimidine-5-sulfonamide] gave a melting point of 169 to 171 °C. The IC50 in data set [1] was < 500 nM.
In turn, `N#Cc1c(-c2ccc(S(=O)(=O)NC(CF)CF)cn2)n(-c2ccc(F)cc2)c2cc(OC(F)F)ccc12` [compound 228, 6-[3-cyano-6-(difluoromethoxy)-1-(4-fluorophenyl)-1H-indol-2-yl]-N-(1,3-difluoropropan-2-yl)pyridine-3-sulfonamide] showed a melting point of 192 to 198 °C. The IC50 in data set [1] was < 500 nM.
The molecule `Cc1cc2c(C#N)c(-c3ccc(S(=O)(=O)N[C@@H](C)C(F)(F)F)cn3)n(C3CCC3)c2cc1OC(F)F` [compound 660, 6-[3-cyano-1-cyclobutyl-6-(difluoromethoxy)-5-methyl-1H-indol-2-yl]-N-[(2S)-1,1,1-trifluoropropan-2-yl]pyridine-3-sulfonamide] returned a melting point of 168 to 170 °C. In data set [1], the 50% inhibitory concentration (IC50) is < 500 nM.
`Cc1ccc2c(C#N)c(-c3ccc(S(=O)(=O)NC4(C(F)(F)F)CC4)cn3)n(C3CCC3)c2c1` [compound 256, 6-(3-cyano-1-cyclobutyl-6-methyl-1H-indol-2-yl)-N-[1-(trifluoromethyl)cyclopropyl]pyridine-3-sulfonamide] showed a melting point of 189 to 194 °C. Besides, the IC50 in data set [1] is < 500 nM.
In turn, `C[C@H](NS(=O)(=O)c1ccc(-c2c(C#N)c3ccc(F)cc3n2CC2CC2)nc1)C(F)(F)F` [compound 397, 6-[3-cyano-1-(cyclopropylmethyl)-6-fluoro-1H-indol-2-yl]-N-[(2S)-1,1,1-trifluoropropan-2-yl]pyridine-3-sulfonamide] showed a melting point of 174 to 175 °C. Further, in data set [1], the IC50 is < 500 nM.
In turn, `COc1cc2c(C#N)c(-c3ccc(S(=O)(=O)N[C@H](C)C(F)(F)F)cn3)n(C3CCCC3)c2cc1C` [compound 694, 6-(3-cyano-1-cyclopentyl-5-methoxy-6-methyl-1H-indol-2-yl)-N-[(2R)-1,1,1-trifluoropropan-2-yl]pyridine-3-sulfonamide] showed a melting point of 210.5 to 211 °C. Besides, in data set [1], the IC50 lay in the range of 2000 to 5000 nM.
`Cc1cc2c(cc1F)c(C#N)c(-c1ccc(S(=O)(=O)N[C@@H](C)C(F)(F)F)cn1)n2-c1ccc(F)c(C)n1` [compound 961, 6-[3-cyano-5-fluoro-1-(5-fluoro-6-methylpyridin-2-yl)-6-methyl-1H-indol-2-yl]-N-[(2S)-1,1,1-trifluoropropan-2-yl]pyridine-3-sulfonamide] yielded a melting point of 240 to 246 °C. Also, the half-maximal inhibitory concentration (IC50) in data set [1] was < 500 nM.
Turning to `COc1cc2c(cc1F)c(C#N)c(-c1ccc(S(=O)(=O)NC(CF)CF)cn1)n2CC1CC1` [compound 225, 6-[3-cyano-1-(cyclopropylmethyl)-5-fluoro-6-methoxy-1H-indol-2-yl]-N-(1,3-difluoropropan-2-yl)pyridine-3-sulfonamide], the melting point was 196 to 199 °C. The IC50 in data set [1] was < 500 nM.
`CC(C)(C)S(=O)(=O)Nc1ccc(-c2c(C(N)=O)c3cc(F)c(OCF)cc3n2C2CCCCC2)cn1` [compound 1102, 2-{6-[(tert-butylsulfonyl)amino]pyridin-3-yl}-1-cyclohexyl-5-fluoro-6-(fluoromethoxy)-1H-indole-3-carboxamide] showed a melting point of 274 to 276 °C. The IC50 in data set [1] is < 500 nM.
The matching figures for `N#Cc1c(-c2ncc(S(=O)(=O)NC(CF)CF)cn2)n(C2CCCC2)c2cc(OC(F)F)ccc12` [compound 233, 2-[3-cyano-1-cyclopentyl-6-(difluoromethoxy)-1H-indol-2-yl]-N-(1,3-difluoropropan-2-yl)pyrimidine-5-sulfonamide]: 199 to 201 °C and < 500 nM.
In the same order, the values of `C[C@H](NS(=O)(=O)c1ccc(-c2c(C#N)c3cc(F)ccc3n2C2C=CCCC2)nc1)C(F)(F)F` (stereo partly drawn) [compound 413, 6-[3-cyano-1-(cyclohex-2-en-1-yl)-5-fluoro-1H-indol-2-yl]-N-[(2S)-1,1,1-trifluoropropan-2-yl]pyridine-3-sulfonamide] are 186 to 187 °C and < 500 nM.
`Cc1cc2c(cc1Cl)c(C(N)=O)c(-c1ccc(S(=O)(=O)N[C@H](C)C(F)(F)F)cn1)n2C1CCC1` [compound 735, 5-chloro-1-cyclobutyl-6-methyl-2-(5-{[(2R)-1,1,1-trifluoropropan-2-yl]sulfamoyl}pyridin-2-yl)-1H-indole-3-carboxamide] had a melting point of 208 to 210 °C. Moreover, the IC50 in data set [1] is < 500 nM.
As to `Cc1ccc2c(c1)c(C#N)c(-c1ccc(S(=O)(=O)N[C@@H](C)C(F)(F)F)cn1)n2-c1ncccn1` [compound 843, 6-[3-cyano-5-methyl-1-(pyrimidin-2-yl)-1H-indol-2-yl]-N-[(2S)-1,1,1-trifluoropropan-2-yl]pyridine-3-sulfonamide], the melting point was 174 to 179 °C. The IC50 in data set [1] was < 500 nM.
In the same order, the values of `CC(C)NS(=O)(=O)c1cnc(-c2c(C#N)c3cc(F)ccc3n2C2CCCCC2)nc1` [compound 526, 2-(3-cyano-1-cyclohexyl-5-fluoro-1H-indol-2-yl)-N-(propan-2-yl)pyrimidine-5-sulfonamide] are 223 to 225 °C and < 500 nM.
`CSc1ccc2c(C#N)c(-c3ncc(S(=O)(=O)NC(CF)CF)cn3)n(C3CCC3)c2c1` [compound 162, 2-[3-cyano-1-cyclobutyl-6-(methylsulfanyl)-1H-indol-2-yl]-N-(1,3-difluoropropan-2-yl)pyrimidine-5-sulfonamide] registered a melting point of 199 to 201 °C. The IC50 in data set [1] is < 500 nM.
`CC(C)n1c(-c2ccc(S(=O)(=O)NC(CF)CF)cn2)c(C#N)c2ccc(Cl)cc21` [compound 63, 6-[6-chloro-3-cyano-1-(propan-2-yl)-1H-indol-2-yl]-N-(1,3-difluoropropan-2-yl)pyridine-3-sulfonamide]: the melting point is 200 to 202 °C. In addition, the concentration for half-maximal inhibition (IC50) in data set [1] was < 500 nM.
